Results published in patent publication US20050152995A1, “Methods and compositions for promoting axon regeneration and cell replacement therapy” (priority 2003, published 2005).
Where two headings read alike, the source gives them in different places.

Columns and labels:
[1] = test system: retinal ganglion cells (RGCs)
Method: The neuroprotective effect of lithium-containing diet on the survival of fluorogold (FG)-labeled RGCs was assessed.
After sacrificing, whole-mount retinas were prepared. At least 12 non-overlapping areas of the retina were selected randomly and photographed. Surviving RGCs that were labeled with FluoroGold were counted, and the density of survival RGCs was determined.

[2] = test system: Bcl-2
Source text: (§1) Retinal histology and immunohistochemistry: The eyeball and optic nerve were dissected out, fixed in 4% paraformaldehyde for 1 hr, cryoprotected and embedded in O.T.C. The tissues were then cryosectioned at 12 μm and subjected to cresyl violet staining or immunohistochemistry. For immunofluorescence labeling, tissue sections were reacted with Cy-3 conjugated mouse anti-GFAP (1:1000, Sigma) or rabbit anti-GAP-43 (1:200, Chemicon). The signal of GAP-43 was then visualized by FITC-conjugated goat anti-rabbit IgG (1:250, Vector Lab.). To detect the expression of Bcl-2 protein, the eyeballs were dissected out and embedded without fixation. Before immunostaining, retinal sections were fixed with acetone that was stored at −20° C. for 15 min and incubated with Bcl-2 antibody (1:50, Transduction lab) followed by reaction with biotinylated anti-mouse IgG (1:100, Vector Lab.) and DTAF-conjugated Streptavidin (1:100, Jackson Lab). The sections were then counter-stained with DAPI (1:150, Sigma) to reveal cell nuclei before they were mounted with Vectashield (Vector Lab) and examined under epifluorescence microscope.

[3] = mice on lithium-containing diet, n=9, 8 DPI
Method: To determine whether lithium induces the expression of Bcl-2 in adult retinal neurons in vivo, we fed mice with food chow containing lithium.
Adult C57BL/6J mice were anesthetized with a mixture of ketamine (12.5 mg/ml, Sigma) and xylazine (2.5 mg/ml, Sigma) (5 μ/g). […] Mice were sacrificed on 8 DPI, and the mouse serum was collected to determine serum lithium concentration (Medtox Laboratories Inc).

[4] = test system: severed optic nerve (astrocytes, RGC axons); format: in vivo, mouse
Method: To evaluate the effects of lithium used simultaneously with astrotoxin in optic nerve regeneration in adult mice, an on optic nerve crush was performed in adult mice. Immediately after the optic nerve crush, a piece of gelform soaked in astrotoxin solution or PBS was placed against the crush site. Thereafter, mice were divided into two groups: one group received a diet containing lithium, and the other received a control diet.
Mice were sacrificed on day 8 after the nerve crush to examine axon regeneration.
Surgical procedure: All experimental procedures and use of animals were approved by Animal Care and Use Committee in the Schepens Eye Research Institute and adhered to the ARVO statement for the Use of Animals in Ophthalmic and Vision Research. Adult C57BL/6J mice were anesthetized with a mixture of ketamine (12.5 mg/ml, Sigma) and xylazine (2.5 mg/ml, Sigma) (5 μ/g). Optic nerve was exposed intraorbitally and crushed for 3 seconds using fine forceps. Immediately after nerve crush, a piece of gelfoam soaked with L-α-aminoadipate (10 mg/ml; Sigma) was placed against the crushed site. Gelfoam soaked with phosphate buffered saline (PBS) was used as control. To ensure continued delivery of astrotoxin, the gelfoam was replaced every 3 days post-injury (DPI). Following recovery from the optic nerve surgery, mice were divided into two groups: one group received a diet supplemented with lithium ([…], Bio-Serv), and the other group received a control diet. Mice were sacrificed on 8 DPI, and the mouse serum was collected to determine serum lithium concentration (Medtox Laboratories Inc).
as §1
Quantitation of Axon Regeneration: Following staining with anti-GAP-43 antibody, the longest distance of axon regeneration axon was measured from the crushed site in optic nerve sections. At least 4 sections were sampled from each optic nerve, and the measured lengths of regenerating axons were averaged. Statistical significance was determined by One-way ANOVA and Tukey-Kramer multiple comparison tests.

[5] = test system: inner limiting membrane (ILM) of the retina; assay: Retinal transplantation into collagenase-treated wild-type retinas; format: in vivo, mouse; conditions: collagenase 100 U/ml, n=4
Method: To distinguish implanted cells and their cellular processes from the host environment, we used retinas from mice expressing an enhanced green fluorescent protein (EGFP) transgene driven by a chicken b-actin promoter and cytomegalovirus enhancer (24′). Suspensions of retinal cells from postnatal day 0 (P0) EGFP mice were injected into the subretinal space of adult wild-type or GFAP−/−Vim−/− hosts. […] To confirm that this failure of neural integration into the wild-type hosts was not a result of the site of transplantation, we injected cells into the vitreous cavity (n=4) (FIG. 6B). […] Few neurons migrated and extended neurites into the damaged retinal area but not beyond (FIG. 1B).
To exclude the possibility that this change in the property of the ILM in GFAP−/−Vim−/− mice affected the fate of retinal transplants, we treated wild-type retinas with collagenase (100 U/ml) to break down the ILM (n=4). By comparing with untreated wild-type hosts (n=3), we found no difference in graft cell migration and neurite extension into the retinas of collagenase treated and untreated mice (data not shown).

[6] = test system: severed optic nerve (astrocytes, RGC axons); format: in vivo, mouse; conditions: for axonal regeneration after optic nerve crush: n=5
Method: Optic nerve crush was performed in Bcl-2tg (14) and wild-type littermate mouse pups, prior to the knowledge of genotypes. Regeneration was assessed and corroborated by three labeling methods: anterograde axon tracing, immunofluorescent staining, and retrograde labeling of RGCs that regenerated their axons. […].
To assess the functional significance of astrocyte maturation in optic nerve regeneration, we treated adult (2-3-month-old) wild-type and Bcl-2tg mice with astrotoxin (L-alpha-aminoadipate), which selectively kills astrocytes and has minimal effects on surrounding neurons and myelin (25, 26). Immediately after optic nerve crush, gelform soaked in L-alpha-aminoadipate solution (10 mg/ml in PBS, Sigma) or PBS was placed against the crush site. […] Regenerating axons extended exclusively into the GFAP-negative area and stopped abruptly where GFAP staining reappeared (FIG. 4B, D).
To quantify axonal regeneration, we used electron microscopy to examine optic nerve sections of adult wild-type and Bcl-2tg mice treated with astrotoxin or PBS. Degenerating myelin and tissue debris were found in sections of all groups (FIG. 4I, J). In treated Bcl-2tg mice (n=5), a large number of regenerating axons were seen 0.5 mm posterior to the crush site, an area devoid of astrocytes and their cellular processes (FIG. 4J). […] In contrast, in other three groups, few axons were present in optic nerve sections if they were collected at 0.5 mm posterior to the crush (n=3/group). Regenerating axons were 20-fold more abundant in astrotoxin-treated Bcl-2tg mice than in PBS-treated wild-type mice (P<0.001) (FIG. 4K). Thus, elimination of mature astrocytes promoted robust optic nerve regeneration in adult Bcl-2tg mice.

[7] = adult wild-type mice, day 8 after nerve crush

O=C([O-])[O-].[Li+].[Li+] [lithium, lithium carbonate]
number of surviving RGCs ([1]; following optic nerve crush, not significant vs control (P>0.05)): 404 /mm^2
density of FG-labeled RGCs ([1]; normal retina): 2134 /mm^2
Bcl-2 mRNA in retina ([2]; RT-PCR, lithium-containing diet vs regular diet): strong induction
Bcl-2 protein expression in retina ([2]; immunostaining, lithium-containing diet): detected in the ganglion cell layer
serum concentration of lithium [3]: 0.80±0.15 mEq/l
GFAP expression along the crushed optic nerve ([4]; mouse, in vivo): detected along the entire nerve
axon regeneration (GAP-43 labeling) ([4]; mouse, in vivo): no sign of regeneration
length of regenerating axons extending from the crushed site ([4]; mouse, in vivo): 80 μm

collagenase
graft cell migration and neurite extension into the retina vs untreated hosts [5]: no difference

N[C@@H](CCCC(=O)O)C(=O)O [astrotoxin, L-alpha-aminoadipate]
abundance of regenerating axons relative to PBS-treated wild-type mice ([6]; adult Bcl-2tg mice, electron microscopy, 0.5 mm posterior to the crush, P<0.001): 20 fold
axonal regeneration after optic nerve crush ([6]; adult Bcl-2tg mice): robust regeneration
GFAP immunofluorescence staining in the optic nerve ([6]; adult wild-type and Bcl-2tg mice, 10 mg/ml in PBS on gelform at crush site): created a GFAP-negative area
effect on myelin and neuronal processes ([6]; adult wild-type and Bcl-2tg mice, immunofluorescence staining): no effect
axonal regeneration after optic nerve crush ([6]; adult wild-type mice): a few axons sprouted past the lesion site
GFAP expression along the crushed optic nerve [4, 7]: a region devoid of immunorective astrocytes (GFAP-negative) was generated
axon regeneration (GAP-43 labeling) [4, 7]: no sign of regeneration
length of regenerating axons extending from the crushed site ([4]; anti-GAP-43 immunostaining, day 8 after nerve crush): 50 μm
